From patent US20220002226A1, “Amorphous Form of Chelating Agents and Process for Preparing them” (Hovione Scientia Limited, priority 2018, published 2022)

Key:
[1] = Solubility test according to European Pharmacopoeia (Ph. Eur. 5.11): increasing amounts of water added to 100 mg of powder; format: physicochemical; settings: 22° C.; for 100 mg dissolved in stated volume of water (YES/No): 100 mg powder
Procedure: Characters section in monographs. This was used in the tests below.
Solubility was assessed using the European Pharmacopeia method referred to above where increasing amounts of water are added to 100 mg of powder until its complete dissolution (or otherwise).
Characters section in monographs.

[2] = cited from earlier work
[3] = 0.1 ml water, Ph. Eur. class Very soluble
[4] = 1.0 ml water, Ph. Eur. class Freely soluble
[5] = 3.0 ml water, Ph. Eur. class Soluble
[6] = 10.0 ml water, Ph. Eur. class Sparingly soluble
[7] = 20.0 ml water, Ph. Eur. class Slightly soluble
[8] = 30.0 ml water, Ph. Eur. class Very slightly soluble
[9] = 40.0 ml water, Ph. Eur. class Insoluble
[10] = 50.0 ml water, Ph. Eur. class printed Insoluble (Tables 2, 6), Very slightly soluble (Table 4)
[11] = 60.0 ml water, Ph. Eur. class Insoluble
[12] = 70.0 ml water, Ph. Eur. class Insoluble
[13] = 80.0 ml water, Ph. Eur. class Insoluble

Structure (SMILES) | 100 mg dissolved in stated volume of water (YES/No) [1, 3] | 100 mg dissolved in stated volume of water (YES/No) [1, 4] | 100 mg dissolved in stated volume of water (YES/No) [1, 5] | 100 mg dissolved in stated volume of water (YES/No) [1, 6] | 100 mg dissolved in stated volume of water (YES/No) [1, 7] | 100 mg dissolved in stated volume of water (YES/No) [1, 8] | solubility compared with the corresponding crystalline form ([1]; Ph. Eur. solubility test, water) | 100 mg dissolved in stated volume of water (YES/No) [1, 9] | 100 mg dissolved in stated volume of water (YES/No) [1, 10] | 100 mg dissolved in stated volume of water (YES/No) [1, 11] | 100 mg dissolved in stated volume of water (YES/No) [1, 12] | 100 mg dissolved in stated volume of water (YES/No) [1, 13] | solubility in water (prior-art statement) [2]
O=C(O)CN(CCN(CC(=O)O)CC(=O)O)CCN(CC(=O)O)CC(=O)O [DTPA Amorphous pharma grade, diethylenetriaminepentaacetic acid] | No | No | No | No | No | YES | higher solubility | – | – | – | – | – | –
O=C(O)CN(CCN(CC(=O)O)CC(=O)O)CCN(CC(=O)O)CC(=O)O [DTPA Crystalline Industrial grade, diethylenetriaminepentaacetic acid] | No | No | No | No | No | No | – | No | No | No | No | YES | –
O=C(O)CN(CCN(CC(=O)O)CC(=O)O)CCN(CC(=O)O)CC(=O)O [DTPA Crystalline pharma grade, diethylenetriaminepentaacetic acid] | No | No | No | No | No | No | – | No | No | No | No | YES | –
O=C(O)CN(CCN(CC(=O)O)CC(=O)O)CCN(CC(=O)O)CC(=O)O [DTPA, diethylenetriaminepentaacetic acid] | – | – | – | – | – | – | – | – | – | – | – | – | soluble in water only at higher pH (around 8)
